Molecular target: 5HT6 human recombinant receptor (Homo sapiens, UniProt P50406)
Test: Binding with serotonin receptor 5HT6 ([3H]-LSD radioligand displacement, HEK-293 cell membranes)
Conditions: for inhibition at 0.01 µM: read-out: Binding % Inhibition 10 nM; for inhibition at 0.1 µM: read-out: Binding % Inhibition 100 nM

Sequence of 5HT6 human recombinant receptor (P50406 whole entry): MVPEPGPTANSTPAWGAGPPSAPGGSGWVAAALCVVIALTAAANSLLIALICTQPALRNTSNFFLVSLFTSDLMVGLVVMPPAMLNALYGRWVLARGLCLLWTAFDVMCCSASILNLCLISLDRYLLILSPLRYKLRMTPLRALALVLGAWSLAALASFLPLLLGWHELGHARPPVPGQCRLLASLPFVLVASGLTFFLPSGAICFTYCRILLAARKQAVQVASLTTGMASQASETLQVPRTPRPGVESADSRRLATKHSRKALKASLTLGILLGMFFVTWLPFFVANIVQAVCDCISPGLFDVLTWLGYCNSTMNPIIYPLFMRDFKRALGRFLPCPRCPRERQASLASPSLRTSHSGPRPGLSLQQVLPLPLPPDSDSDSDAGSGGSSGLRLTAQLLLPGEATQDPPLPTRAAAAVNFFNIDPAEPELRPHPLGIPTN

SMILES	inhibition at 0.01 µM	inhibition at 0.1 µM	Ki
CN(C)CCc1c[nH]c2ccc(NS(=O)(=O)c3ccc4cc(Cl)ccc4c3)cc12 [Example 1, 6-chloro-N-(3-(2-(dimethylamino)ethyl)-1H-indol-5-yl)naphthalene-2-sulfonamide]	73.9%	84.4%	
CN(C)CCc1c[nH]c2ccc(NS(=O)(=O)c3cccc4c(N(C)C)cccc34)cc12 [Example 2]	75.1%	86.3%	5.3 nM
Cc1ccc(S(=O)(=O)Nc2ccc3[nH]cc(CCN(C)C)c3c2)c2ccccc12 [Example 3, N-(3-(2-(dimethylamino)ethyl)-1H-indol-5-yl)-4-methylnanhthalene-1-sulfonamide]	80.3%	88.5%	9.8 nM
CN(C)CCc1c[nH]c2ccc(NS(=O)(=O)c3ccc4ccc(Cl)cc4c3)cc12 [Example 4, 7-chloro-N-(3-(2-(dimethylamino)ethyl)-1H-indol-5-yl)naphthalene-2-sulfonamide]	81.2%	89.3%	3.9 ± 0.4 nM
CN(C)CCc1c[nH]c2ccc(NS(=O)(=O)c3ccc4cc(N(C)C)ccc4c3)cc12 [Example 5, 6-(dimethylamino)-N-(3-(2-(dimethylamino)ethyl)-1H-indol-5-yl)naphthalene-2-sulfonamide]	69.8%	88.5%	11.9 ± 3.3 nM
CN(C)CCc1c[nH]c2ccc(NS(=O)(=O)c3cccc4cccc(Cl)c34)cc12 [Example 6, 8-chloro-N-(3-(2-(dimethylamino)ethyl)-1H-indol-5-yl)naphthalene-1-sulfonamide]	68.4%	88.4%	2.1 nM
CN(C)CCc1c[nH]c2ccc(NS(=O)(=O)c3ccc(F)c4ccccc34)cc12 [Example 7, N-(3-(2-(dimethylamino)ethyl)-1H-indol-5-yl)-4-fluoronaphthalene-1-sulfonamide]	81.5%	95.4%	5.2 nM
CN(C)CCc1cn(C)c2ccc(NS(=O)(=O)c3ccc4c(Cl)cccc4c3)cc12 [Example 8, 5-chloro-N-(3-(2-(dimethylamino)ethyl)-1-methyl-1H-indol-5-yl)naphthalene-2-sulfonamide]	64.5%	93.4%	13.4 ± 0.9 nM
Cn1cc(CCN2CCCC2)c2cc(NS(=O)(=O)c3cccc4ccccc34)ccc21 [Example 9, N-(1-methyl-3-(2-(pyrrolidin-1-yl)ethyl)-1H-indol-5-yl)naphthalene-1-sulfonamide]	58.1%	86.8%	42.5 ± 13.9 nM
CN(C)CCc1c[nH]c2ccc(N(C)S(=O)(=O)c3cccc4ccccc34)cc12 [Example 10, N-(3-(2-(dimethylamino)ethyl)-1H-indol-5-yl)-N-methylnaphthalene-1-sulfonamide]	79.2%	92.7%	9.7 ± 4.5 nM
CN(C)CCc1c[nH]c2ccc(N(C)S(=O)(=O)c3ccc4ccccc4c3)cc12 [Example 11, N-(3-(2-(dimethylamino)ethyl)-1H-indol-5-yl)-N-methylnaphthalene-2-sulfonamide]	73.1%	93.1%	12.3 ± 3.7 nM
CN(C)CCc1c[nH]c2ccc(N(C)S(=O)(=O)c3cccc4c(Cl)cccc34)cc12 [Example 12, 5-chloro-N-(3-(2-(dimethylamino)ethyl)-1H-indol-5-yl)-N-methylnaphthalene-1-sulfonamide]	51.6%	85.4%	48.7 ± 6.9 nM
CN(C)CCc1c[nH]c2ccc(N(C)S(=O)(=O)c3ccc4c(Cl)cccc4c3)cc12 [Example 13, 5-chloro-N-(3-(2-(dimethylamino)ethyl)-1H-indol-5-yl)-N-methylnaphthalene-2-sulfonamide]	55.5%	87.6%	18.1 ± 2.6 nM
COc1cccc2c(S(=O)(=O)Nc3ccc4[nH]cc(CCN(C)C)c4c3)cccc12 [Example 14, N-(3-(2-(dimethylamino)ethyl)-1H-indol-5-yl)-5-methoxynanhthalene-1-sulfonamide]	59.6%	88.1%	18.6 nM
CN(C)CCc1c[nH]c2ccc(NS(=O)(=O)c3cccc4c(O)cccc34)cc12 [Example 15, N-(3-(2-(dimethylamino)ethyl)-1H-indol-5-yl)-5-hydroxynaphthalene-1-sulfonamide]	91.9%	94.6%	0.5 nM
COc1ccc2ccc(S(=O)(=O)Nc3ccc4[nH]cc(CCN(C)C)c4c3)cc2c1 [Example 16, N-(3-(2-(dimethylamino)ethyl)-1H-indol-5-yl)-7-methoxynaphthalene-2-sulfonamide]	70%	89.3%	5 ± 1.3 nM
CN(C)CCc1c[nH]c2ccc(NS(=O)(=O)c3ccc4ccc(O)cc4c3)cc12 [Example 17, N-(3-(2-(dimethylamino)ethyl)-1 H-indol-5-yl)-7-hydroxynaphthalene-2-sulfonamide]	69.9%	91.5%	6.9 ± 0.2 nM
COc1cccc2cccc(S(=O)(=O)Nc3ccc4[nH]cc(CCN(C)C)c4c3)c12 [Example 18, N-(3-(2-(dimethylamino)ethyl)-1H-indol-5-yl)-8-methoxynaphthalene-1-sulfonamide]	69.2%	88.4%	8.3 nM
CN(C)CCc1c[nH]c2ccc(NS(=O)(=O)c3cccc4cccc(O)c34)cc12 [Example 19, N-(3-(2-(dimethylamino)ethyl)-1H-indol-5-yl)-8-hydroxynaphthalene-1-sulfonamide]	53.8%	85.9%	24.6 ± 2.1 nM
COc1ccc(S(=O)(=O)Nc2ccc3[nH]cc(CCN(C)C)c3c2)c2ccccc12 [Example 20, N-(3-(2-(dimethylamino)ethyl)-1H-indol-5-yl)-4-methoxynaphthalene-1-sulfonamide]	53.3%	81.8%	8.5 ± 1.7 nM

Source: patent EP2036888A1, “Naphthyl-substituted sulfonamides” (Laboratorios del Dr. Esteve S.A., priority 2007, dated 2009)
